Holding throughout (assay type): in vivo, rat (male FW 49)
For assay [1], the system named is Kaolin-induced edema of the hind paw of the rat. The assay can be described thus: Kaolin-induced edema of the hind paw of the rat (anti-exudative effect). To be noted: Rattus norvegicus, po, 5 h, 30 minutes before inducing edema, swelling 5 hours after, read-out: Kaolin edema ED35 per os. As for the experimental part:
(§1) The compunds were tested for their anti-exudative effect on Kaolin-induced edema and carrageenin-induced edema in the hind paw of the rat after oral administration to the rat.
a. Kaolin-induced edema of the hind paw of the rat
(§2) The kaolin edema was induced according to the method given by Hillebrecht [Arzneimittel-Forsch. 4, 607 (1954)] by subplanar injection of 0.05 ml of a 10% suspension of kaolin in a 0.85% sodium chloride solution. Measurement of the thickness of the paws was effected using the technique of Doepfner and Cerletti [Int. Arch. Allergy Immunol. 12, 89 (1958)].
(§3) The test compound was administered orally to male FW 49 rats weighing 120-150 gm by means of an esophageal tube 30 minutes before inducing the edema. 5 hours after inducing the edema the average size of the swelling in the rats treated with the test compound was compared with the size of the swelling in blind-treated control animals. By graphic extrapolation the dose leading to a 35% of the swelling (ED35) was calculated from the percentage reduction in the size of the swelling caused by the administration of different doses.

The test system of assay [2] is Carrageenin-induced edema of the hind paw of the rat. The assay can be described thus: Carrageenin-induced edema of the hind paw of the rat (anti-exudative effect). To be noted: Rattus norvegicus, po, 3 h, 60 minutes before provocation, swelling 3 hours after, read-out: Carrageenin edema ED35 per os. As for the experimental part:
as §1, §3
b. Carrageenin-induced edema of the hind paw of the rat
(§4) The carrageenin edema was induced according to the method of Winder et al. [Proc. Soc. exp. Biol. Med. 111, 544 (1962)] by subplanar injection of 0.05 ml of a 1% solution of carrageenin in a 0.85% solution of sodium chloride. The test compound was administered 60 minutes before the provocation of the edema.
(§5) For the calculation of the reductive effect on the edema, the size of the swelling was measured 3 hours after the provocation of the edema. All other details were the same as described above in the case of the kaolin edema.
On the technique in general: The carrageenan paw model is a standard test of acute inflammation.

The subject of a further assay is Adjuvant arthritis-rat. The assay can be described thus: Adjuvant arthritis test on rats (M.butyricum). To be noted: po, 504 h, 21st day, once daily for 20 days by esophageal tube. As for the experimental part: The adjuvant arthritis tests on rats were performed in analogy to the procedure described by Rosenthale and Nagra [Proc. Soc. exp. Biol. Med. 125, 149 (1967)].
Male FW 49-rats were given a subplantar injection of 0.1 ml of a 1% suspension of M.butyricum in viscous paraffin oil in a hind paw. The test compound was administered, beginning with the M.butyricum injection, once daily for 20 days by esophageal tube.
On the 21st day after inducing the arthritis, the volumes of the right paw (non-specific primary reaction at the place of injection) and the left paw (immunologically predicated specific secondary reaction) of the animals treated with the test compound were compared with those of the blind-treated control animals. From the swelling reduction obtained with the various doses, an ED50 was graphically determined.

In assay [3] the test system is Kaolin edema and carrageenin edema of the hind paw of the rat. Put plainly: Average value of kaolin edema and carrageenin edema. Particulars: Rattus norvegicus, per os, Table I. As for the experimental part:
as §1, §2, §3, §4, §5

This passage reports ED35 and ED50 results from patent publication US3950427A, “Araliphatic ketones and carbinols” (Boehringer Ingelheim GmbH, priority 1973, dated 1976).

Like-named read-outs stand apart in the source and are kept apart here.

By ED50 is commonly meant the dose that gives a 50% effect, or the effect in half of the subjects. Regarding `C/C(=C\C(C)O)c1ccc(C2CCCCC2)c(Cl)c1` (stereo not shown) [R, (e)-4-(3-chloro-4-cyclohexyl-phenyl)-3-pentene-2-ol], the ED35 in assay [1] (Table I) was 4.8 mg/kg; in assay [1] (Table II), 4.8 mg/kg; in assay [2] (Table I), 3.1 mg/kg; in assay [2] (Table II), 3.1 mg/kg; in assay [3], 3.95 mg/kg. The ED50 in the assay with Adjuvant arthritis-rat (left paw volume, read-out: Adjuvant arthritis-rat ED50 per os, Secondary reaction) is < 0.7 mg/kg; in the assay with Adjuvant arthritis-rat (right paw volume, read-out: Adjuvant arthritis-rat ED50 per os, Primary reaction) it was < 0.3 mg/kg.
